Assay results: patent US5128359A, “Benzimidazole and azabenzimidazole derivatives which are thromboxane receptor antagonists, their methods of preparation” (Laboratoires UPSA, priority 1990, dated 1992)

Biological target: T1, TXA2 receptors of human platelets (Homo sapiens, UniProt P21731)
T1 construct: Human platelets incubate in the presence of a single concentration; endogenous in cells; host or cells: human platelets
T1 sequence (P21731 1-343): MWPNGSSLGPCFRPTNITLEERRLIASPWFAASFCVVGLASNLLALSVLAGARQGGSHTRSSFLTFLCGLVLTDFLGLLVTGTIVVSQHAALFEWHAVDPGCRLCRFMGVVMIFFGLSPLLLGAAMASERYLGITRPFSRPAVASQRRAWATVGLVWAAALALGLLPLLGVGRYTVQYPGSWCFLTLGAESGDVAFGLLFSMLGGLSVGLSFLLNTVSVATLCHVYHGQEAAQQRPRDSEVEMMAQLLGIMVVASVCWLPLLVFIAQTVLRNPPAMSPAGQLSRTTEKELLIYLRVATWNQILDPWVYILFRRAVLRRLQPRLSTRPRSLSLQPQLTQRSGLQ
Experiment: displacement of radioligand [^125 I]PTA-OH specifically bound to the TXA2 receptors of human platelets
Type: binding
Conditions: for inhibition at 10 µM / inhibition at 0.1 µM: 0.5 h, 30 minutes at 37° C; for inhibition at 10 µM: 1E-5 M competing agent, read-out: % displacement, Concentration 1E-5 M; for inhibition at 0.1 µM: 1E-7 M competing agent, read-out: % displacement, Concentration 1E-7 M; for Ki: determined according to the formula of CHENG and PRUSOFF, read-out: Ki (inhibition constant)
Method: The affinity of the products of the Examples described for thromboxane A2 receptors is evaluated by the technique of displacing a radioligand specifically bound to the TXA2 receptors of human platelets. […] The reaction is completed by the addition of a buffer, followed by rapid filtration through […] filters. […] The results are expressed, for the doses tested, as the percentage displacement of the radioligand specifically bound to the TXA2 receptors of human platelets.

Row | Structure (SMILES) | inhibition at 10 µM [%] | inhibition at 0.1 µM [%] | Ki [nM]
1 | CC(C)(CC(=O)O)Cc1nc2cc(Br)ccc2n1Cc1ccc(Cl)cc1 [Example 127, 4-[1 (4-Chlorobenzyl)-5-bromobenzimidazol-2-yl]-3,3-dimethylbutanoic acid] | 67 | 38 | –
2 | CC(C)(CC(=O)O)Cc1nc2cc(F)ccc2n1Cc1ccc(S(C)(=O)=O)cc1 [Example 97, 4-[1-(4-Methylsulfonylbenzyl)-5-fluorobenzimidazol-2-yl]-3,3-dimethylbutanoic acid] | 100 | 100 | 37
3 | Cc1ccc(Cn2c(CC(C)(C)CC(=O)O)nc3ccccc32)cc1 [Example 66, 4-[1-(4-Methylbenzyl)benzimidazol-2-yl]-3,3-dimethylbutanoic acid] | 100 | 52 | –
4 | CC(C)(CC(=O)O)Cc1nc2cc(F)ccc2n1Cc1ccc(Cl)cc1 [Example 74, 4-[1-(4-Chlorobenzyl)-5-fluorobenzimidazol-2-yl]-3,3-dimethylbutanoic acid] | 100 | 94 | 6.3
5 | O=C(O)[C@@H]1CC[C@H]1c1nc2cc(F)ccc2n1Cc1ccc(Cl)cc1 (relative stereo) [Example 90, Trans-2-[1 (4-chlorobenzyl)-5-fluorobenzimidazol-2-yl]cyclobutane-1 carboxylic acid] | 97 | 2 | 1180
6 | CC(C)(CC(=O)O)Cc1nc2cc(Cl)ccc2n1Cc1ccc2ccccc2c1 [Example 143, 4-[1-(Naphth-2-ylmethyl)-5-chlorobenzimidazol-2-yl]-3,3-dimethylbutanoic acid] | 89 | 77 | –

Next, values leading:

Row | inhibition at 10 µM [%] | inhibition at 0.1 µM [%] | Ki [nM] | Structure (SMILES)
7 | 89 | 87 | 5.8 | CSc1ccc(Cn2c(CC(C)(C)CC(=O)O)nc3cc(Cl)ccc32)cc1 [Example 117, 4-[1-(4-Methylthiobenzyl)-5-chlorobenzimidazol-2-yl]-3,3-dimethylbutanoic acid]
8 | 92 | 95 | – | CC(C)(CC(=O)O)Cc1nc2cc(F)ccc2n1Cc1ccc(Br)cc1 [Example 109, 4-[1-(4-Bromobenzyl)-5-fluorobenzimidazol-2-yl]-3,3-dimethylbutanoic acid]
9 | 100 | 28 | – | O=C(O)CCCCSc1nc2cc(F)ccc2n1Cc1ccc(Cl)cc1 [Example 59, 5-[1-(4-Chlorobenzyl)-5-fluorobenzimidazol-2-yl]mercaptopentanoic acid]
10 | 93 | 8 | – | O=C(O)CCCSc1nc2cc(F)ccc2n1Cc1ccc(Cl)cc1 [Example 65, 4-[1-(4-Chlorobenzyl)-5 fluorobenzimidazol-2-yl]mercaptobutanoic acid]
11 | 99 | 88 | 11.4 | CC(C)(CC(=O)O)Cc1nc2ccccc2n1Cc1ccc(Br)cc1F [Example 76, 4-[1-(2-Fluoro-4-bromobenzyl)benzimidazol-2-yl]-3,3-dimethylbutanoic acid]
12 | 97 | 37 | – | O=C(O)CCCSc1nc2ccccc2n1Cc1ccc(Cl)cc1 [Example 63, 4-[1-(4-Chlorobenzyl)benzimidazol-2-yl]mercaptobutanoic acid]
13 | 100 | 44 | – | COc1ccc2c(c1)nc(CC(C)(C)CC(=O)O)n2Cc1ccc(Cl)cc1 [Example 78, 4-[1-(4-Chlorobenzyl)-5-methoxybenzimidazol-2-yl]-3,3-dimethylbutanoic acid]
